Results taken from patent US8236789B2, “1-adamantyl azetidin-2-one derivatives and drugs containing same” (Kowa Company, Ltd., priority 2008, dated 2012).

Key:
Type in all cases: biochemical
mouse 11β-HSD1 = biological target: T1, mouse 11β-HSD1 (Mus musculus, UniProt P50172); experiment: Enzyme inhibitory activity assay, lysate of CHO-K1 cells stably expressing mouse 11β-HSD1, cortisol by competitive ELISA; conditions: Table 2; cell lysate, 100 nmol/L cortisone, NADPH, 37° C. 1 hour; read-out: in vitro assay (IC50 uM) m HSD1
T1 construct: expressed in transfected cells
Protocol: (§1) 1. Human 11β-HSD1-, Human 11β-HSD2- and Mouse 11β-HSD1-Gene Clonings and Establishment of Stably Expressing Cells
(§2) Human 11β-HSD1- and human 11β-HSD2-expressing vectors were transfected into human kidney-derived cell line, HEK293 cells, using a transfection reagent, jet PEI (Funakoshi). Mouse 11β-HSD1 was transfected to Chinese hamster ovary-derived cell line, CHO-K1 cells. Selection was conducted with 200-400 μg/mL of zeocine (Invitrogen) to provide stably expressing-cell clones. The stably expressing cells were suspended in buffer solution A (20 mmol/L Tris-HCl, pH 7.4, 250 mmol/L sucrose, 1 mmol/L EGTA, 1 mmol/L EDTA, 1 mmol/L MgCl2), sonicated, and then stored at −80° C.
(§3) 2. Assay of Enzyme Inhibitory Activity
(§4) An enzymatic reaction was conducted using a polystyrene 96-well plate. Each well was added with 1 μL of a test agent dissolved in DMSO and then diluted (0.003 to 3 mmol/L), and further added with 10 μL of cell lysate diluted to a concentration of 0.1 mg/mL to 0.4 mg/mL. Next, 90 μL of buffer solution A containing substrate (100 nmol/L cortisone or cortisol) and coenzyme (400 μmol/L NADPH or NAD+) was added and the mixture was incubated at 37° C. for 1 hour. The enzymatic reaction was stopped by treating at 95° C. for 3 minutes. Cortisol that was present in the reaction solution was determined by a competitive ELISA shown below.
(§5) Anti-rabbit IgG antibody (Chemi-con) diluted to 2 μg/mL with carbonate buffer solution (pH 9.6) was added in 100 μL each to a 96-well immuno plate (Nunc) and immobilized by an incubation at 4° C. overnight. […] After washed three times with buffer solution B containing 0.05% Tween 20, the plates were allowed to develop color by adding 100 μL, of color reagent, TMB (Moss). The color reaction was stopped by 25 μL of 1 mol/L sulfuric acid and the absorbance was determined at 450 nm with a microplate reader (Molecular Device, VersaMax).

human 11β-HSD1 = biological target: T2, human 11β-HSD1 (Homo sapiens, UniProt P28845); experiment: Enzyme inhibitory activity assay, lysate of HEK293 cells stably expressing human 11β-HSD1, cortisol by competitive ELISA; conditions: Table 1; cell lysate, 100 nmol/L cortisone, NADPH, 37° C. 1 hour; read-out: in vitro assay (IC50 uM) h HSD1
T2 construct: expressed in transfected cells
Protocol: as §1, §2, §3, §4, §5

human 11β-HSD2 = biological target: T3, human 11β-HSD2 (Homo sapiens, UniProt P80365); experiment: Enzyme inhibitory activity assay, lysate of HEK293 cells stably expressing human 11β-HSD2, cortisol by competitive ELISA; conditions: Table 1; cell lysate, 100 nmol/L cortisol, NAD+, 37° C. 1 hour; read-out: in vitro assay (IC50 uM) h HSD2
T3 construct: expressed in transfected cells
T3 sequence (P80365 1-405): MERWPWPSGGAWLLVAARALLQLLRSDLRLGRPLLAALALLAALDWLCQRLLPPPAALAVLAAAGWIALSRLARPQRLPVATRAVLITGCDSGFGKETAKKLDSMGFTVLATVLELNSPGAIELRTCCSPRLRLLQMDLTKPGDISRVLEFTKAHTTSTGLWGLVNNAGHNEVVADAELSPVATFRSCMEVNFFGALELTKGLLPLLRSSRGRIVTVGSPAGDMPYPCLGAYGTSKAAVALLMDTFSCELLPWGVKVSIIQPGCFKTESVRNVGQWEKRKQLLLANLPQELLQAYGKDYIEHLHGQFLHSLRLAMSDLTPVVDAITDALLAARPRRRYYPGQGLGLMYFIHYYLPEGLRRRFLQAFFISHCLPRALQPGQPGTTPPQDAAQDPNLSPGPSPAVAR
Protocol: as §1
Human 11β-HSD1-, human 11β-HSD2-, and mouse 11β-HSD1-gene clonings were conducted using as a template a reverse transcription product of human-liver RNA, human-kidney RNA (CELL APPLICATIONS), and mouse-kidney RNA respectively, by means of PCR cloning with reference to nucleotide sequences of Genbank Accession Nos. NM_005525, NM_000196, and NM_008288. The obtained PCR products of about 0.9 kbp, 1.2 kbp, and 0.9 kbp were subcloned into an expression vector pcDNA3.1+/Zeo (Invitrogen).
as §2, §3, §4
Anti-rabbit IgG antibody (Chemi-con) diluted to 2 μg/mL with carbonate buffer solution (pH 9.6) was added in 100 μL each to a 96-well immuno plate (Nunc) and immobilized by an incubation at 4° C. overnight. 50 μL of enzymatic reaction solution was put onto the plates, and further, anti-cortisol antibody (Cosmo Bio) and HRP-labeled cortisol (Cosmo Bio), diluted with buffer solution B (25 mmol/L Tris-HCl pH 7.4, 137 mmol/L NaCl, 2.68 mmol/L KCl), were added in 50 μL respectively and incubated at 4° C. overnight. After washed three times with buffer solution B containing 0.05% Tween 20, the plates were allowed to develop color by adding 100 μL, of color reagent, TMB (Moss). The color reaction was stopped by 25 μL of 1 mol/L sulfuric acid and the absorbance was determined at 450 nm with a microplate reader (Molecular Device, VersaMax).
The values of human 11β-HSD1, human 11β-HSD2, and mouse 11β-HSD1 activities were subtracted from 100, and the resultant values were regarded as the respective 11βHSD inhibition rates of example compounds. […] The comparison of human 11β-HSD1 and human 11β-HSD2 inhibiting activities is shown in Table 1, and the comparison of human 11β-HSD1 and mouse 11β-HSD1 inhibiting activities is shown in Table 2.

T2 sequence (P28845 whole entry): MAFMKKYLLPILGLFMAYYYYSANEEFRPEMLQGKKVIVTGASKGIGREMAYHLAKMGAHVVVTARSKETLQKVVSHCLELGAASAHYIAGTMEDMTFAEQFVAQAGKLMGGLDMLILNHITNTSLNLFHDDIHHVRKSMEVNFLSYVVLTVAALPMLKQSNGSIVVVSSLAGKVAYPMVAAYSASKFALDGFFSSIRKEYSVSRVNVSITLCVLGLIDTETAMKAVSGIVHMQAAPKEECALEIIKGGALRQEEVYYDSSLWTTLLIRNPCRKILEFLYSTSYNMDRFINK
T1 sequence (P50172 whole entry): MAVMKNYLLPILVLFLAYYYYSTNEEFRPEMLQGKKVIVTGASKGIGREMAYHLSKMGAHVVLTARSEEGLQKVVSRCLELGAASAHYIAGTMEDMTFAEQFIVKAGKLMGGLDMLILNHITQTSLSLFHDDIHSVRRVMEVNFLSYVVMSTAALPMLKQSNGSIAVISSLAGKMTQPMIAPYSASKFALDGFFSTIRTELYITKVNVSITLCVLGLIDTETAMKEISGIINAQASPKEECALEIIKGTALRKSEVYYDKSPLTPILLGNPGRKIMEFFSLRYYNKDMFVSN

| SMILES | IC50 (mouse 11β-HSD1) [µM] | IC50 (human 11β-HSD1) [µM] | IC50 (human 11β-HSD2) [µM] |
| --- | --- | --- | --- |
| CC1(C)C(=O)N(C2C3CC4CC(C3)CC2C4)C1c1ccccc1 (centres unmarked) [Example 1, 1-(adamantan-2-yl)-3,3-dimethyl-4-phenylazetidin-2-one] | 0.077 | 0.013 | 3 to 30 |
| CC1(C)C(=O)N(C2C3CC4CC(C3)CC2C4)C1c1ccc(Cl)cc1 (centres unmarked) [Example 22, 1-(adamantan-2-yl)-3,3-dimethyl-4-(4-chlorophenyl)azetidin-2-one] | 0.66 | 0.0095 | 15 |
| COc1ccc(C2N(C3C4CC5CC(C4)CC3C5)C(=O)C2(C)C)cc1 (centres unmarked) [Example 23, 1-(adamantan-2-yl)-3,3-dimethyl-4-(4-methoxyphenyl)azetidin-2-one] | – | 0.01 | > 30 |
| CC1(C)C(=O)N(C2C3CC4CC(C3)CC2C4)C1c1cccc(F)c1F (centres unmarked) [Example 24, 1-(adamantan-2-yl)-3,3-dimethyl-4-(2,3-difluorophenyl)azetidin-2-one] | 0.1 | 0.011 | > 30 |
| CC1(C)C(=O)N(C2C3CC4CC(C3)CC2C4)C1c1ccc(Cl)c(Cl)c1 (centres unmarked) [Example 26, 1-(adamantan-2-yl)-3,3-dimethyl-4-(3,4-dichlorophenyl)azetidin-2-one] | 0.46 | 0.013 | > 30 |
| CC1(C)C(=O)N(C2C3CC4CC(C3)CC2C4)C1c1ccc(F)c(F)c1 (centres unmarked) [Example 27, 1-(adamantan-2-yl)-3,3-dimethyl-4-(3,4-difluorophenyl)azetidin-2-one] | – | 0.017 | 8.8 |
| CC1(C)C(=O)N(C2C3CC4CC(C3)CC2C4)C1c1ccc(F)c(Cl)c1 (centres unmarked) [Example 29, 1-(adamantan-2-yl)-3,3-dimethyl-4-(3-chloro-4-fluorophenyl)azetidin-2-one] | 0.59 | 0.011 | > 30 |
| CC1(C)C(=O)N(C2C3CC4CC(C3)CC2C4)C1c1cc(F)cc(F)c1F (centres unmarked) [Example 35, 1-(adamantan-2-yl)-3,3-dimethyl-4-(2,3,5-trifluorophenyl)azetidin-2-one] | 0.61 | 0.053 | > 30 |
| CC(C)c1ccc(C2N(C3C4CC5CC(C4)CC3C5)C(=O)C2(C)C)cc1 (centres unmarked) [Example 37, 1-(adamantan-2-yl)-3,3-dimethyl-4-(4-isopropylphenyl)azetidin-2-one] | – | 0.026 | 14 |
| CC(C)(C)c1ccc(C2N(C3C4CC5CC(C4)CC3C5)C(=O)C2(C)C)cc1 (centres unmarked) [Example 38, 1-(adamantan-2-yl)-3,3-dimethyl-4-(4-t-butylphenyl)azetidin-2-one] | – | 0.079 | 3 to 30 |
| CC1(C)C(=O)N(C2C3CC4CC(C3)CC2C4)C1c1ccccc1C(F)(F)F (centres unmarked) [Example 41, 1-(adamantan-2-yl)-3,3-dimethyl-4-(2-trifluoromethylphenyl)azetidin-2-one] | 0.079 | 0.0087 | 3 to 30 |
| COc1ccc(C2N([C@H]3C4CC5CC3C[C@](O)(C5)C4)C(=O)C2(C)C)c2ccccc12 (stereo partly drawn) [Example 48, trans-1-(5-hydroxyadamantan-2-yl)-3,3-dimethyl-4-(4-methoxynaphthalen-1-yl)azetidin-2-one] | 0.33 | 0.0088 | – |
| CC1(C)C(=O)N(C2C3CC4CC(C3)CC2C4)C1c1cccc2c1OCC=CC2 (centres unmarked) [Example 67, 1-(adamantan-2-yl)-4-(2,5-dihydrobenzo[b]oxepin-9-yl)-3,3-dimethylazetidin-2-one] | 0.029 | 0.065 | – |
| CC1(C)C(=O)N(C2C3CC4CC(C3)CC2C4)C1c1cccc2c1OCCCC2 (centres unmarked) [Example 68, 1-(adamantan-2-yl)-3,3-dimethyl-4-(benzo[b]oxepan-9-yl)azetidin-2-one] | 0.02 | 0.026 | 3 to 30 |
| CC1(C)C(=O)N(C2C3CC4CC(C3)CC2C4)C1Cc1ccccc1 (centres unmarked) [Example 69, 4-benzyl-1-(adamantan-2-yl)-3,3-dimethylazetidin-2-one] | 0.0051 | 0.02 | 0.28 |

Stronger by IC50 (human 11β-HSD1), values ahead:

| IC50 (mouse 11β-HSD1) [µM] | IC50 (human 11β-HSD1) [µM] | IC50 (human 11β-HSD2) [µM] | SMILES |
| --- | --- | --- | --- |
| 0.072 | 0.0067 | 6.7 | COc1ccccc1C1N(C2C3CC4CC(C3)CC2C4)C(=O)C1(C)C (centres unmarked) [Example 33, 1-(adamantan-2-yl)-3,3-dimethyl-4-(2-methoxyphenyl)azetidin-2-one] |
| 0.055 | 0.0034 | 3 to 30 | CC1(C)C(=O)N(C2C3CC4CC(C3)CC2C4)C1c1ccccc1F (centres unmarked) [Example 39, 1-(adamantan-2-yl)-3,3-dimethyl-4-(2-fluorophenyl)azetidin-2-one] |
| 0.34 | 0.0059 | > 30 | COc1ccc(C2N(C3C4CC5CC(C4)CC3C5)C(=O)C2(C)C)c(F)c1 (centres unmarked) [Example 40, 1-(adamantan-2-yl)-3,3-dimethyl-4-(2-fluoro-4-methoxyphenyl)azetidin-2-one] |
| 0.076 | 0.0055 | 3 to 30 | CC1(C)C(=O)N(C2C3CC4CC(C3)CC2C4)C1c1ccccc1Cl (centres unmarked) [Example 44, 1-(adamantan-2-yl)-3,3-dimethyl-4-(2-chlorophenyl)azetidin-2-one] |
| 0.0056 | 0.0075 | – | CC1(C)C(=O)N([C@H]2C3CC4CC2C[C@](O)(C4)C3)C1c1cccc2ccccc12 (stereo partly drawn) [Example 47, trans-1-(5-hydroxyadamantan-2-yl)-3,3-dimethyl-4-(naphthalen-1-yl)azetidin-2-one] |
| 0.027 | 0.0046 | – | CC1(C)C(=O)N([C@H]2C3CC4CC2C[C@](F)(C4)C3)C1c1cccc(Cl)c1Cl (stereo partly drawn) [Example 52, trans-1-(5-fluoroadamantan-2-yl)-3,3-dimethyl-4-(2,3-dichlorophenyl)azetidin-2-one] |
| 0.025 | 0.0039 | – | CC1(C)C(=O)N(C2C3CC4CC(C3)CC2C4)C1c1cccc(Cl)c1 (centres unmarked) [Example 53, 1-(adamantan-2-yl)-3,3-dimethyl-4-(3-chlorophenyl)azetidin-2-one] |
| 0.87 | 0.0039 | – | CSc1ccc(C2N(C3C4CC5CC(C4)CC3C5)C(=O)C2(C)C)cc1 (centres unmarked) [Example 55, 1-(adamantan-2-yl)-3,3-dimethyl-4-[4-(methylthio)phenyl]azetidin-2-one] |
| 0.46 | 0.0079 | > 30 | COc1ccc(C2N(C3C4CC5CC(C4)CC3C5)C(=O)C2(C)C)c(C)c1 (centres unmarked) [Example 56, 1-(adamantan-2-yl)-3,3-dimethyl-4-(4-methoxy-2-methylphenyl)azetidin-2-one] |
